From US12157749B2, “Borate-based drug and use thereof” (Chengdu Origin Biotechnology Limited Company, priority 2018, dated 2024)
Several values for one entry are separate records, joined by “and”; a condition that tells them apart may be missing. Identical values can stand only once. Entries after “also recorded” stand apart in the source; their conditions may differ. Counter-ions that a name gives are not always drawn. Marks after values point to notes of the source that are not given here.

What was measured:
[1] = tested on: transplantation tumor of human multiple myeloma MM.1S; experiment: Transplantation tumor model of human multiple myeloma cells MM.1S in CB17-SCID mouse, dose 0.00831 mmol/kg (Activity Experiment Example 2); assay type: in vivo; conditions: for tumor weight (g): X ± SD, tumor dissected on day 19; for tumor weight (g) / tumor inhibition rate (%): five doses; for Relative tumor proliferation rate T/C(%): 0.00831 mmol/kg oral gavage twice a week; for tumor inhibition rate (%): from tumor weight
Protocol: The model used in this experiment was the transplantation tumor model of human multiple myeloma cells line MM.1 S in CB17-SCID mouse (purchased from Beijing Weitong Lihua Experimental Animal Technology Co., Ltd.). Cryopreserved MM.1S cells were cultured in vitro by conventionally way after resuscitation. The cells were collected in logarithmic growth phase and diluted with serum-free culture medium or PBS to form a tumor cell suspension with a concentration of 5×10^7/ml. The tumor cell suspensions prepared above were taken with a 1 ml syringe and injected subcutaneously into the left armpit backrest side of the mouse, and 0.2 ml was injected into each inoculation site. About 1 to 2 weeks after the cultured tumor cells were injected into CB17-SCID mouse, the tumors were touched under the armpit. When the tumor volume was more than 100 mm^3, the tumor volume was measured and calculated, and the mice were randomly divided into groups according to the tumor volume. The administration doses of different test samples were equivalent doses on a molar basis with a specific dose of 0.00831 mmol/kg. Administration mode and frequency: The test samples were administered by oral gavage with a volume of 10 ml/kg. The model group was given equal volume of solvent. The test samples were administered twice a week for five times (with administration dose of 0.00831 mmol/kg, i.e., the dose of MLN9708 being 4.30 mg/kg, the dose of the compound 6a being 4.67 mg/kg, and the dose of the compound 6b being 4.53 mg/kg) for a duration of 19 days. The administration was conducted on the 1st, 4th, 8th, 11th and 15th day, and the experiment was finished on the 19th day. The mental state, activity, eating and other general conditions of mice were observed every day, and the weight was measured twice a week. The short diameter (a) and long diameter (b) of each mouse tumor were measured with vernier caliper twice a week, and the tumor volume was calculated according to formula (a^2×b)/2. The relative tumor volume (RTV) was calculated according to the measured tumor volume, RTV=Vt/V0. Wherein, V0 was the tumor volume when random grouping (i.e. d0) and Vt was the tumor volume at each measurement (i.e. dn). According to the following formula, evaluation index of anti-tumor activity, the relative tumor proliferation rate T/C (%), was calculated: Note: TRTV is RTV of treatment group, and CRTV is RTV of model control group. Efficacy evaluation standard is T/C %≤40%, and after statistics procession, p<0.05 is considered significant. On the 19th day, after the tumor was weighted and measured, the mice in each group were killed, and the tumor was dissected and weighed. According to the tumor weight, the tumor inhibition rate (TGI) was calculated, TGI=((average tumor weight of model group−average tumor weight of administration group)/average tumor weight of model group)×100%.

[2] = tested on: transplantation tumor of human multiple myeloma MM.1S; experiment: Transplantation tumor model of human multiple myeloma cells MM.1S in CB17-SCID mouse, low dose 0.00554 mmol/kg (Activity Experiment Example 4); assay type: in vivo; conditions: for area under the curve of tumor volume vs. time curve, ascending sequence: FIG. 2; for Relative tumor proliferation rate T/C(%): 0.00554 mmol/kg oral gavage twice a week; for tumor inhibition rate (%): from tumor weight at end of experiment
Protocol: The model used in this experiment was the transplantation tumor model of human multiple myeloma cells line MM.1S in CB17-SCID mouse. Cryopreserved MM.1S cells were cultured in vitro conventionally after resuscitation. The cells were collected in logarithmic growth phase and diluted with serum-free culture medium or PBS to form a tumor cell suspension with a concentration of 5×10^7/ml. The tumor cell suspensions prepared above were taken with a 1 ml syringe and injected subcutaneously into the left armpit backrest side of the mouse, and 0.2 ml was injected into each inoculation site. About 1 to 2 weeks after the cultured tumor cells were injected into the CB17-SCID mouse, the tumors were touched under the armpit. When the tumor volume was more than 100 mm^3, the tumor volume was measured and calculated, and the mice were randomly divided into groups according to the tumor volume. The administration doses of different test samples were equivalent doses on a molar basis with a specific dose of 0.00554 mmol/kg. Administration mode and frequency: the test samples were administered by oral gavage with a volume of 10 ml/kg. The model group was given equal volume of solvent. The test samples were administered twice a week for five times with an administration dose of 0.00554 mmol/kg, i.e., the dose of MLN9708 being 2.86 mg/kg, the dose of the compound 6q being 2.77 mg/kg, the dose of the compound 6f being 2.80 mg/kg, and the dose of the compound 6b being 3.02 mg/kg, for a duration of 17 days. The administration was conducted on the 1st, 5th, 8th, 12th and 15th day, and the experiment was finished on the 17th day. The mental state, activity, eating and other general conditions of mice were observed every day, and the weight was measured twice a week. The short diameter (a) and long diameter (b) of each mouse tumor were measured with a vernier caliper twice a week, and the tumor volume was calculated according to formula (a^2×b)/2. The relative tumor volume (RTV) was calculated according to the measured tumor volume, RTV=Vt/V0. Wherein, V0 was the tumor volume when random grouping (i.e. d0) and Vt was the tumor volume at each measurement (i.e. […]). According to the following formula, evaluation index of anti-tumor activity relative to the relative tumor proliferation rate T/C (%) was calculated: Note: TRTV is RTV of treatment group, and CRTV is RTV of model control group. According to “Technical Guidelines for Non-clinical Research of Cytotoxic Antitumor Drugs” issued by State Food and Drug Administration in China, the evaluation standard is T/C %≤40%, and after statistics procession, p<0.05 is considered significant. On the 19th day, after the tumor was weighted and measured, the mice in each group were killed, and the tumor was dissected and weighed. According to the tumor weight, the tumor inhibition rate (TGI) was calculated, TGI=((average tumor weight of model group−average tumor weight of administration group)/average tumor weight of model group)×100%.

[3] = day 19, 0.00831 mmol/kg oral gavage
[4] = X ± SD, tumor dissected at end of experiment, 0.00554 mmol/kg oral gavage, five doses
[5] = 0.00554 mmol/kg oral gavage, five doses

SMILES | tumor weight (g) ([1]; 0.00831 mmol/kg oral gavage) | Relative tumor proliferation rate T/C(%) ([1]; day 4) | Relative tumor proliferation rate T/C(%) ([1]; day 8) | Relative tumor proliferation rate T/C(%) ([1]; day 11) | Relative tumor proliferation rate T/C(%) ([1]; day 15) | Relative tumor proliferation rate T/C(%) ([1]; day 19) | tumor inhibition rate (%) [1, 3] | inhibition of tumor growth (in words) ([2]; 0.00554 mmol/kg oral gavage) | inhibitory effect on tumor growth compared with other test samples ([2]; 0.00554 mmol/kg oral gavage) | inhibitory effect sequence on transplantation tumor growth from strong to weak ([2]; 0.00554 mmol/kg oral gavage) | area under the curve of tumor volume vs. time curve, ascending sequence ([2]; 0.00554 mmol/kg oral gavage) | tumor weight (g) [2, 4] | Relative tumor proliferation rate T/C(%) ([2]; day 5) | Relative tumor proliferation rate T/C(%) ([2]; day 8) | Relative tumor proliferation rate T/C(%) ([2]; day 12) | Relative tumor proliferation rate T/C(%) ([2]; day 15) | Relative tumor proliferation rate T/C(%) ([2]; day 17) | tumor inhibition rate (%) [2, 5] | onset time / effective time of controlling tumor growth (in words) ([2]; 0.00554 mmol/kg oral gavage) | further results
CC(C)C[C@H](NC(=O)CNC(=O)c1cc(Br)ccc1Cl)B1OC(=O)C(CC(=O)O)(CC(=O)O)O1 [Compound 6a, (R)-2,2′-(2-(1-(2-(2-chloro-5-bromo-benzoylamino)acetylamino)-3-methylbutyl)-5-oxo-1,3,2-dioxaborolan-4,4-diyl)diacetic acid] | 2.471 ± 0.598^★★▴▴ g | 87.94% | 69.95% | 88.41^▴ % | 94.56^▴ % | 80.45% | 31.63% | – | – | – | – | – | – | – | – | – | – | – | – | –
CC(C)C[C@H](NC(=O)CNC(=O)c1cc(Br)ccc1F)B1OC(=O)C(CC(=O)O)(CC(=O)O)O1 [Compound 6b, (R)-2,2′-(2-(1-(2-(2-fluoro-5-bromo-benzoylamino)acetylamino)-3-methylbutyl)-5-oxo-1,3,2-dioxaborolan-4,4-diyl)diacetic acid] | 0.063 ± 0.072^★★ g | 48.84^▴ % | 4.3^▴▴ % | 1.75^▴▴ % | 1.12^▴▴ % | 0.5^▴▴ % | 98.26% | can significantly inhibit tumor growth | significantly stronger inhibitory effect on tumor growth than MLN9708(p<0.01); also recorded: has the fastest effect on tumor growth and has the strongest inhibitory activity | 6b>6f>6q>MLN9708 | compound 6b<compound 6f<compound 6q | 0.360 ± 0.415^★★▴▴ g | 18% | 5.86^▴▴ % | 9.04% | 10.59^▴▴ % | 9.06^▴▴ % | 87.75% | – | inhibition of tumor growth (in words) ([1]; 0.00831 mmol/kg oral gavage): can significantly inhibit tumor growth; inhibitory effect on tumor growth compared with MLN9708 and compound 6a ([1]; 0.00831 mmol/kg oral gavage): significantly stronger inhibitory effect on tumor growth than MLN9708(p<0.01) and the compound 6a(p<0.01); inhibitory effect on tumor growth compared with compound 6c ([1]; same method and procedure, data not shown): significantly stronger inhibitory effect on tumor growth of the transplantation tumor of human multiple myeloma MM.1S in SCID mouse than that of the compound 6c
CC(C)C[C@H](NC(=O)CNC(=O)c1cc(Br)ccc1F)B1OC(=O)C(c2ccccc2)O1 (stereo partly drawn) [Compound 6f, 2-fluoro-5-bromo-N-[2-({(1R)-3-methyl-1-[4-oxo-5-phenyl-1,3,2-dioxaborolan-2-yl]butyl}amino)-2-oxoethyl]benzamide] | – | – | – | – | – | – | – | can also significantly inhibit tumor growth | the inhibitory effect is weaker than that of compound 6b; also recorded: its inhibitory activity is weaker than that the compound of 6b | 6b>6f>6q>MLN9708 | compound 6b<compound 6f<compound 6q | 0.741 ± 0.917^★★▴▴ g | – | 43.49^▴▴● % | 31.17% | 30.15^▴▴ % | 22.86^▴▴ % | 74.82% | longer onset time to control tumor growth than that of the compound 6b | –
CC(C)C[C@H](NC(=O)CNC(=O)c1cc(Cl)ccc1F)B1OC(=O)C(CC(=O)O)(CC(=O)O)O1 [Compound 6q, (R)-2,2′-(2-(1-(2-(2-fluoro-5-chloro-benzoylamino)acetylamino)-3-methylbutyl)-5-oxo-1,3,2-dioxaborolan-4,4-diyl)diacetic acid] | – | – | – | – | – | – | – | can also significantly inhibit tumor growth | the inhibitory effect is weaker than that of compound 6b | 6b>6f>6q>MLN9708 | compound 6b<compound 6f<compound 6q | 0.945 ± 0.603^★★▴▴● g | – | 47.34^▴▴●● % | 67.42% and 67.42^▴▴● % | 45.35^▴▴ % | 29.00% and 29.20^▴▴ % | 67.85% | the effective time of controlling tumor growth was longer than the 6f group and significantly longer than the 6b group | –
CC(C)C[C@H](NC(=O)CNC(=O)c1cc(Cl)ccc1Cl)B1OC(=O)C(CC(=O)O)(CC(=O)O)O1 [MLN9708, Ixazomib Citrate, reference compound] | 1.782 ± 1.361^★★▴▴ g | 84.97% | 59.75% | 51.05% | 41.67% | 56.1% | 50.69% | no effect on inhibiting tumor growth | – | 6b>6f>6q>MLN9708 | – | – | 90.08% | 112.42% | 137.07% | 97.25% | 84.29% | −0.48% | – | tumor weight [2, 4]: 2.953 ± 0.668 g
